# Source: US20230117324A1, “OXAZINE MONOACYLGLYCEROL LIPASE (MAGL) INHIBITORS” (Hoffmann-La Roche Inc., priority 2018, published 2023)
# pIC50: −log10 of the molar value.
# Biological target: T1, MAGL (Homo sapiens, UniProt Q99685)
# T1 sequence (Q99685 1-303): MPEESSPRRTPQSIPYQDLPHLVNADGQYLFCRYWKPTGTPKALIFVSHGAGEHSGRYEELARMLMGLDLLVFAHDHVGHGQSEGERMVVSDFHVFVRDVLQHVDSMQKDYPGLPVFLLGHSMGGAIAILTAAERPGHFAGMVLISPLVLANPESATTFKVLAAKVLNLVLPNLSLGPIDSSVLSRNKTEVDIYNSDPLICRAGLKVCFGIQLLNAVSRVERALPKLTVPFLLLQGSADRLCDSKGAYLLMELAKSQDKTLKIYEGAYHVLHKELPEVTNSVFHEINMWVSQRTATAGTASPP
# Experiment: MAGL inhibition, 2-AG assay (hydrolysis of 2-arachidonoylglycerol, arachidonic acid by mass spectrometry)
# Assay type: biochemical
# Details: 2-AG assay (footnote [b])
# Procedure, shortened: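 Hydrolysis of 8 μM 2-arachidonoylglycerol by […] was run for 30 min at RT after a 15 min compound preincubation, in Tris/EDTA/Tween buffer. Test compounds spanned […]. The product was measured by online SPE-MS/MS (transitions 303.1→259.1 and 311.1→267.0), and activity was derived from the arachidonic acid/d8-arachidonic acid signal ratio.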
row,SMILES,pIC50
1,"O=C1CO[C@H]2CCN(C(=O)N3CCC(c4cccc(OC(F)(F)F)c4)C3)C[C@H]2N1 (single isomer, unassigned) [Example 221, (4aR,8aS)-6-[3-(S or R)-[3-(Trifluoromethoxy)phenyl]pyrrolidine-1-carbonyl]-4,4a,5,7,8,8a-hexahydropyrido[4,3-b][1,4]oxazin-3-one]",6.75
2,"O=C1CO[C@H]2CCN(C(=O)N3CCC(c4cccc(OC(F)(F)F)c4)C3)C[C@H]2N1 (single isomer, unassigned) [Example 222, (4aR,8aS)-6-[3-(R or S)-[3-(Trifluoromethoxy)phenyl]pyrrolidine-1-carbonyl]-4,4a,5,7,8,8a-hexahydropyrido[4,3-b][1,4]oxazin-3-one]",6.94
3,"O=C1CO[C@H]2CCN(C(=O)N3CCC(c4cccc(Br)c4)C3)C[C@H]2N1 (single isomer, unassigned) [Example 228, (4aR,8aS)-6-[(3S or R)-3-(3-Bromophenyl)pyrrolidine-1-carbonyl]-4,4a,5,7,8,8a-hexahydropyrido[4,3-b][1,4]oxazin-3-one]",6.79
4,"O=C1CO[C@H]2CCN(C(=O)N3CCC(c4cccc(Br)c4)C3)C[C@H]2N1 (single isomer, unassigned) [Example 229, (4aR,8aS)-6-[(3R or S)-3-(3-Bromophenyl)pyrrolidine-1-carbonyl]-4,4a,5,7,8,8a-hexahydropyrido[4,3-b][1,4]oxazin-3-one]",6.64
5,"O=C1CO[C@H]2CCN(C(=O)N3CCC(c4cc(Cl)cc(OCC(F)(F)F)c4)C3)C[C@H]2N1 (single isomer, unassigned) [Example 238, (4aR,8aS)-6-((R or S)-3-(3-Chloro-5-(2,2,2-trifluoroethoxy)phenyl)pyrrolidine-1-carbonyl)hexahydro-2H-pyrido[4,3-b][1,4]oxazin-3(4H)-one]",6.81
6,"O=C1CO[C@H]2CCN(C(=O)N3CCC(c4cc(Cl)cc(OCC(F)(F)F)c4)C3)C[C@H]2N1 (single isomer, unassigned) [Example 239, (4aR,8aS)-6-((S or R)-3-(3-Chloro-5-(2,2,2-trifluoroethoxy)phenyl)pyrrolidine-1-carbonyl)hexahydro-2H-pyrido[4,3-b][1,4]oxazin-3(4H)-one]",7.41
7,"O=C1CO[C@H]2CCN(C(=O)N3CC(c4ccc(N5CCC(C(F)(F)F)C5)cn4)C3)C[C@H]2N1 (single isomer, unassigned) [Example 271, (4aR,8aS)-6-(3-(5-((R or S)-3-(Trifluoromethyl)pyrrolidin-1-yl)pyridin-2-yl)azetidine-1-carbonyl)hexahydro-2H-pyrido[4,3-b][1,4]oxazin-3(4H)-one]",7.66
8,"CC(C)(C)[Si](C)(C)OCCn1cc(C2CCN(C(=O)N3CC[C@@H]4OCC(=O)NC4C3)CC2)c2cc(Cl)ccc21 (stereo in doubt) [Example 268, (4aS,8aS)-6-[4-[1-[2-[tert-Butyl(dimethyl)silyl]oxyethyl]-5-chloro-indol-3-yl]piperidine-1-carbonyl]-4,4a,5,7,8,8a-hexahydropyrido[4,3-b][1,4]oxazin-3-one]",6.17
9,"N#CC(c1ccc(F)cc1)C1CCN(C(=O)N2CC[C@@H]3OCC(=O)N[C@@H]3C2)CC1 (stereo partly drawn) [Example 48, 2-(4-Fluorophenyl)-2-(1-((4aR,8aS)-3-oxooctahydro-2H-pyrido[4,3-b][1,4]oxazine-6-carbonyl)piperidin-4-yl)acetonitrile]",6.44
10,"O=C1CO[C@H]2CCN(C(=O)N3CCN(C(c4ccccc4)C(F)(F)F)CC3)C[C@H]2N1 (stereo partly drawn) [Example 49, (4aR,8aS)-6-(4-(2,2,2-Trifluoro-1-phenylethyl)piperazine-1-carbonyl)hexahydro-2H-pyrido[4,3-b][1,4]oxazin-3(4H)-one]",5.96
11,"Cc1noc(CC(c2ccc(F)cc2)C2CCN(C(=O)N3CC[C@@H]4OCC(=O)N[C@@H]4C3)CC2)n1 (stereo partly drawn) [Example 51, (4aR,8aS)-6-(4-(1-(4-Fluorophenyl)-2-(3-methyl-1,2,4-oxadiazol-5-yl)ethyl)piperidine-1-carbonyl)hexahydro-2H-pyrido[4,3-b][1,4]oxazin-3(4H)-one]",7.20
12,"O=C1CO[C@H]2CCN(C(=O)N3CCN(C(c4ccc(F)cc4F)C(F)(F)F)CC3)C[C@H]2N1 (stereo partly drawn) [Example 53, (4aR,8aS)-6-(4-(1-(2,4-Difluorophenyl)-2,2,2-trifluoroethyl)piperazine-1-carbonyl)hexahydro-2H-pyrido[4,3-b][1,4]oxazin-3(4H)-one]",6.38
13,"O=C1CO[C@H]2CCN(C(=O)N3CC(C(O)(c4ccc(F)cc4)c4ccc(F)cc4)C3)C[C@H]2N1 [Example 54, (4aR,8aS)-6-(3-(Bis(4-fluorophenyl)(hydroxy)methyl)azetidine-1-carbonyl)hexahydro-2H-pyrido[4,3-b][1,4]oxazin-3(4H)-one]",6.09
14,"O=C1CO[C@H]2CCN(C(=O)N3CC(C(F)(c4ccc(F)cc4)c4ccc(F)cc4)C3)C[C@H]2N1 [Example 55, (4aR,8aS)-6-(3-(Fluorobis(4-fluorophenyl)methyl)azetidine-1-carbonyl)hexahydro-2H-pyrido[4,3-b][1,4]oxazin-3(4H)-one]",6.38
15,"O=C1CO[C@H]2CCN(C(=O)N3CCC(C(COCC(F)(F)F)c4ccc(F)cc4)CC3)C[C@H]2N1 (stereo partly drawn) [Example 56, (4aR,8aS)-6-(4-(1-(4-Fluorophenyl)-2-(2,2,2-trifluoroethoxy)ethyl)piperidine-1-carbonyl)hexahydro-2H-pyrido[4,3-b][1,4]oxazin-3(4H)-one]",7.68
16,"O=C1CO[C@H]2CCN(C(=O)N3CCC(c4ccnc(C5CC5)c4)CC3)C[C@H]2N1 [Example 61, (4aR,8aS)-6-(4-(2-Cyclopropylpyridin-4-yl)piperidine-1-carbonyl)hexahydro-2H-pyrido[4,3-b][1,4]oxazin-3(4H)-one]",6.24
17,"CC(c1ccc(C(F)(F)F)cc1)C1CN(C(=O)N2CC[C@@H]3OCC(=O)N[C@@H]3C2)C1 (stereo partly drawn) [Example 83, (4aR,8aS)-6-[3-[1-[4-(Trifluoromethyl)phenyl]ethyl]azetidine-1-carbonyl]-4,4a,5,7,8,8a-hexahydropyrido[4,3-b][1,4]oxazin-3-one]",6.94

# Further lines, results first:
row,pIC50,SMILES
1,9.00,"O=C1CO[C@H]2CCN(C(=O)N3CC(c4ccc(N5CCC(C(F)(F)F)C5)cc4)C3)C[C@H]2N1 (single isomer, unassigned) [Example 198, (4aR,8aS)-6-(3-(4-((S or R)-3-(Trifluoromethyl)pyrrolidin-1-yl)phenyl)azetidine-1-carbonyl)hexahydro-2H-pyrido[4,3-b][1,4]oxazin-3(4H)-one]"
2,9.00,"CC(Oc1ccc(C2CN(C(=O)N3CC[C@@H]4OCC(=O)N[C@@H]4C3)C2)cc1)C(F)(F)F (single isomer, unassigned) [Example 246, (4aR,8aS)-6-[3-(R or S)-[4-(2,2,2-Trifluoro-1-methyl-ethoxy)phenyl]azetidine-1-carbonyl]-4,4a,5,7,8,8a-hexahydropyrido[4,3-b][1,4]oxazin-3-one]"
3,9.00,"CC(Oc1ccc(C2CN(C(=O)N3CC[C@@H]4OCC(=O)N[C@@H]4C3)C2)cc1)C(F)(F)F (single isomer, unassigned) [Example 248, (4aR,8aS)-6-[3-(S or R)-[4-(2,2,2-Trifluoro-1-methyl-ethoxy)phenyl]azetidine-1-carbonyl]-4,4a,5,7,8,8a-hexahydropyrido[4,3-b][1,4]oxazin-3-one]"
4,7.77,"O=C1CO[C@H]2CCN(C(=O)N3CC(c4ccc(N5CCC(C(F)(F)F)C5)cn4)C3)C[C@H]2N1 (single isomer, unassigned) [Example 272, (4aR,8aS)-6-(3-(5-((S or R)-3-(Trifluoromethyl)pyrrolidin-1-yl)pyridin-2-yl)azetidine-1-carbonyl)hexahydro-2H-pyrido[4,3-b][1,4]oxazin-3(4H)-one]"
5,8.70,"O=C1CO[C@H]2CCN(C(=O)N3CC(c4ccc(N5CCC(C(F)(F)F)C5)nc4)C3)C[C@H]2N1 (single isomer, unassigned) [Example 274, (4aR,8aS)-6-[3-[6-[3-(R or S)-(Trifluoromethyl)pyrrolidin-1-yl]-3-pyridyl]azetidine-1-carbonyl]-4,4a,5,7,8,8a-hexahydropyrido[4,3-b][1,4]oxazin-3-one]"
6,8.05,"O=C1CO[C@H]2CCN(C(=O)N3CCC(C(OCC(F)(F)F)c4ccc(F)cc4)CC3)C[C@H]2N1 (stereo partly drawn) [Example 50, (4aR,8aS)-6-(4-((4-Fluorophenyl)(2,2,2-trifluoroethoxy)methyl)piperidine-1-carbonyl)hexahydro-2H-pyrido[4,3-b][1,4]oxazin-3(4H)-one]"
7,7.68,"O=C1CO[C@H]2CCN(C(=O)N3CCC(C4(c5ccc(C(F)(F)F)cc5)CC4)CC3)C[C@H]2N1 [Example 52, (4aR,8aS)-6-(4-(1-(4-(Trifluoromethyl)phenyl)cyclopropyl)piperidine-1-carbonyl)hexahydro-2H-pyrido[4,3-b][1,4]oxazin-3(4H)-one]"
8,8.52,"O=C1CO[C@H]2CCN(C(=O)N3CCC(C(Oc4ccc(F)cc4Cl)C(F)(F)F)CC3)C[C@H]2N1 (stereo partly drawn) [Example 81, (4aR,8aS)-6-(4-(1-(2-Chloro-4-fluorophenoxy)-2,2,2-trifluoroethyl)piperidine-1-carbonyl)hexahydro-2H-pyrido[4,3-b][1,4]oxazin-3(4H)-one]"
